In US20100243432A1, “HUMIDIFIER” (priority 2007, published 2010):

Test: solubility of AgCl calculated from solubility product
Type: physicochemical
Conditions: in water
Text: As described above, it can be seen that when the silver ions are eluted through the electrolysis, the sterilization can be more efficiently conducted than when the silver ions are eluted through other methods.

Which “dissolvable AgCl, as a concentration of the silver ions” value does the source give for `[Cl][Ag]` [AgCl, silver chloride] here?
The value was “approximately 1.5 mg/L”.
